# Experimental data published in patent US10077436B2, “Beta-glucosidase enzymes for increased biomass saccharification” (Edeniq, Inc., priority 2013, dated 2018).
# How the values were obtained:
# [1] = test system: S-BG (Novozymes SP188 from Sigma), commercial beta-glucosidase; test: BG kinetics, pNPG hydrolysis assay with glucose as competitive inhibitor, S-BG; type: biochemical; settings: pH 5.0, 50° C.
# From the text: The kinetic properties of beta glucosidase are important for cellulosic hydrolysis, since in commercial situations a wide range of substrate concentrations and different product inhibition conditions will be encountered. In this example, a Michaelis-Menten kinetics model was used to describe BG kinetics. To determine these kinetic properties, BG activity assays using standard substrates pNPG and cellobiose were employed. yEdQ745-BG (wild type) and yEdQ885-BG (improved), were compared with two commercial BGs, A-BG (Accellerase®) BG from Dupont) and S-BG (Novozymes SP188 from Sigma).
# BG activity assay using pNPG is one of the two commonly used standard assays to measure BG activity, which utilizes hydrolysis of p-nitrophenyl-β-D-glucopyranoside (pNPG) by BG into a yellow colored product, p-nitrophenol (pNP), that has a strong absorbance at 405 nm. One pNPG unit is defined as the amount of enzyme that produces 1 μmol of pNP per min. Briefly, to determine BG activity, 25 μL of diluted enzyme in 200 mM sodium acetate buffer (pH 5.0) was mixed with 25 μL of the same buffer and 25 μL of RO water (or glucose solution for the kinetic study) and the mixture was preincubated at 50° C. for 5 min. The reaction was initiated by adding 25 μL of 10 mM pNPG in 200 mM sodium acetate buffer (pH 5.0) and the mixture was incubated at 50° C. for 10 min. The reaction was then terminated by adding 100 μL of 0.25 M sodium carbonate, and the amount of pNP produced was determined by measuring absorbance at 405 nm using a predetermined calibration curve.
# The range of substrate concentration was chosen to show detectable activity at the lowest concentration and saturation stage at high substrate concentration. The upper limit of inhibitor (glucose) level was chosen to get as close as possible to the real conditions during saccharification (˜4% w/v glucose) and have a detectable residual activity.
# To determine the kinetic properties, a competitive inhibition mechanism was hypothesized as proposed in the literature (Chauve et al, 2010; Krogh et al, 2010). The Michaelis-Menten equation with the competitive inhibition term can be expressed in Equation (1), where [S] is the substrate concentration (mM), [I] is the inhibitor concentration (mM), V is the rate of product formation (mM/min), Vmax is the maximal rate of product formation (mM/min), Km is the Michaelis-Menten constant and Ki is the inhibition constant. The turnover number, Kcat, can be calculated by Equation (2), where [Et] is the total amount of enzyme.
# Conventionally, linearization methods can be used to determine the kinetic parameters based on Equation (1). Three common linear plots used are Lineweaver-Burke, Eadie-Hofstee and Hanes plots (Rogers and Gibon, 2009). However, these linearized versions of the Michaelis-Menten equation often produce substantial errors in parameter estimation. […] All of the activity data at different substrate levels and different inhibitor levels were fit simultaneously according to the full nonlinear equation for competitive enzyme inhibition as expressed in Equation (1). Thus, Vmax, Km and Ki can be determined simultaneously from this fitting process, and Km/Ki can then be calculated. Kcat can be obtained by Equation (2) and Kcat/Km can be calculated accordingly.
# The above experimental data were fit in the competitive inhibition model as expressed in Equation (1) by simultaneous nonlinear regression. The order of maximum velocity (Vmax) is A-BG>yEdQ885-BG>S-BG≈yEdQ745-BG. […] Nevertheless, the in-house BGs have much higher dissociation constant for inhibitor (Ki), indicating higher tolerance to product inhibition. Consistent with Vmax, the order of turnover number (Kcat) is A-BG>yEdQ885-BG>S-BG≈yEdQ745-BG. With much lower Km and much higher Kcat, A-BG has a considerably higher catalytic efficiency (Kcat/Km) than the other enzymes. The catalytic efficiency of S-BG and yEdQ885-BG is quite close, which is higher than that of yEdQ745-BG. […]
# [2] = biological target: T1, Aspergillus niger beta-glucosidase (CAB75696.1, SEQ ID NO:2) improved variant yEdQ885-BG (Aspergillus niger, UniProt Q9P8F4, Y363C/Y375F/Y610F); test: BG kinetics, pNPG hydrolysis assay with glucose as competitive inhibitor, yEdQ885-BG; type: biochemical
# T1 construct: strain yEdQ885, BG acid/base mutant #8
# T1 sequence (Q9P8F4 20-860 Y363C/Y375F/Y610F): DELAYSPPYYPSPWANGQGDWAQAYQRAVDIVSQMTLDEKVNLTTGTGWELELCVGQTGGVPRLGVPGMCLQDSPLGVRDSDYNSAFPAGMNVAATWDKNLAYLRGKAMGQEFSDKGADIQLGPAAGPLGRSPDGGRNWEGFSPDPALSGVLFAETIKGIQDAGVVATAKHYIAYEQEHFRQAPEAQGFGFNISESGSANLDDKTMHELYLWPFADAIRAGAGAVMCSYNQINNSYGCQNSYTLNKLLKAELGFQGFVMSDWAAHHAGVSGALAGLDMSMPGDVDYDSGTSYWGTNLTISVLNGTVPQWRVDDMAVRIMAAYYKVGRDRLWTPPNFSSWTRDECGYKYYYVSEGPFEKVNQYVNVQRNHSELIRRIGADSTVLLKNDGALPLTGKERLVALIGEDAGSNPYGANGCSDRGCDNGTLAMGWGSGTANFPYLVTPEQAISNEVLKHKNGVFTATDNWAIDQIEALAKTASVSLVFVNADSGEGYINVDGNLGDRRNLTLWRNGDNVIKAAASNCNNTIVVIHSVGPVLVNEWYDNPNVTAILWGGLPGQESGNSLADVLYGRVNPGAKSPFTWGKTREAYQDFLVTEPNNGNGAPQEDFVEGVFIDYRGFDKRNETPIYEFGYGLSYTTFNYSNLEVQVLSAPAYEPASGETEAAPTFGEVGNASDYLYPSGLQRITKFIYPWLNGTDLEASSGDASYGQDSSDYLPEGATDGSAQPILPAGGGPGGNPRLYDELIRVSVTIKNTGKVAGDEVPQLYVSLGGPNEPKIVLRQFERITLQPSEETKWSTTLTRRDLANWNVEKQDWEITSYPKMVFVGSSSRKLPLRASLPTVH
# From the text: The beta-glucosidase (BG) gene from Aspergillus niger (Accession #CAB75696.1) was integrated into the TR3 yeast background at the T4U3 genomic site.
# High resolution enzyme assays and kinetic testing comparing the beta-glucosidases described herein and commercial enzyme preparations were pursued to more clearly quantify differences in mutant BG enzymes compared to the wild type BG enzyme. Based on data presented herein, BG mutant YEdQ885 was selected for further analysis and compared to the BG activity present in commercial preparations of SP188 (Novozymes) and Accellerase® BG (DuPont) as well as wild type BG. […]
# BG activity assay using pNPG is one of the two commonly used standard assays to measure BG activity, which utilizes hydrolysis of p-nitrophenyl-β-D-glucopyranoside (pNPG) by BG into a yellow colored product, p-nitrophenol (pNP), that has a strong absorbance at 405 nm. […] The reaction was then terminated by adding 100 μL of 0.25 M sodium carbonate, and the amount of pNP produced was determined by measuring absorbance at 405 nm using a predetermined calibration curve. […]
# To determine the kinetic properties, a competitive inhibition mechanism was hypothesized as proposed in the literature (Chauve et al, 2010; Krogh et al, 2010). […] The turnover number, Kcat, can be calculated by Equation (2), where [Et] is the total amount of enzyme. […]
smiles,measurement,setting,value
OC[C@H]1OC(O)[C@H](O)[C@@H](O)[C@@H]1O (stereo partly shown) [glucose],Km/Ki,"[1]; inhibitor influence, Km for pNPG / Ki for glucose",0.52
same,Ki,"[1]; pNPG substrate, competitive inhibition",810 ± 110 µM
same,Ki,[2],2190 ± 100 µM
same,Km/Ki,"[2]; inhibitor influence, Km for pNPG / Ki for glucose, pH 5.0, 50° C.",0.29
